Assay type in all cases: cell-based
The test system of assay [1] is Colletotrichum graminicola (CGR; isolate Carroll-IA-99). The following applies: for IC50 (ppm) High Salt Cgr: high salt: 1/2x liquid media plus 1 mM calcium chloride, 50 mM potassium chloride, Table 1; for IC50 (ppm) Low Salt Cgr: low salt: 1/8x Czapek-Dox broth plus 0.25 mM calcium chloride, 12.5 mM potassium chloride; for Antifungal activity (IC50 in ppm) against C. graminicola under high salt conditions: Table 2.

Assay [2] deals with Fusarium graminearum (FGR; isolate 73B ISU). The following applies: for IC50 (ppm) High Salt Fgr: high salt: 1/2x liquid media plus 1 mM calcium chloride, 50 mM potassium chloride; for IC50 (ppm) Low Salt Fgr: low salt: 1/8x potato dextrose broth plus 0.25 mM calcium chloride, 12.5 mM potassium chloride.
The test system of assay [3] is Fusarium verticillioides (FVE).
The next assay deals with Diplodia maydis (DMA). Particulars: for IC50 (ppm) High Salt Dma: high salt: 1/2x liquid media plus 1 mM calcium chloride, 50 mM potassium chloride; for IC50 (ppm) Low Salt Dma: low salt: 1/8x potato dextrose broth plus 0.25 mM calcium chloride, 12.5 mM potassium chloride.

Where only a bound is given, the exact number is not on record here.

Turning to “PP-PDF1-1F-7H6: Pp-PDF1 variant from first shuffling round (RVCEKPSKFFKGMCVRDRDCTVACKKEGLATGFCQKKGFFNFVCVCKKPC; Synthetic sequence obtained from DNA shuffling of a plant sequence.)”, the “IC50 (ppm) High Salt Cgr” value in assay [1] came to 10 ppm. Besides, the “IC50 (ppm) High Salt Fgr” value in assay [2] was found to be 3 ppm. For the same substance, the “IC50 (ppm) High Salt Fve” value in assay [3] is recorded as greater than 200 ppm. Further, the “IC50 (ppm) High Salt Dma” value in the assay on Diplodia maydis (DMA) worked out at 200 ppm.

“PP-PDF1-1F-12H3: Pp-PDF1 variant from first shuffling round (RVCTKPSKFFKGLCVSDDDCAHACRKEGLATGKCQKKGFFNRVCVCKKPC; Synthetic sequence obtained from DNA shuffling of a plant sequence.)”: the “IC50 (ppm) High Salt Cgr” value in assay [1] worked out at 10 ppm. Further, in assay [2], the “IC50 (ppm) High Salt Fgr” value was 3 ppm. Moreover, the “IC50 (ppm) High Salt Fve” value in assay [3] is greater than 200 ppm. Further, the “IC50 (ppm) High Salt Dma” value in the assay on Diplodia maydis (DMA) is reported as 200 ppm.

Consider “PP-PDF1-2CF-2D8: Pp-PDF1 variant from second shuffling round (RVCTKPSKFYKGLCVSDRDCTNACRKEGLPTGFCQSKGFFNSVCVCKKPC; Synthetic sequence obtained from DNA shuffling of a plant sequence.)”, for which, in assay [1], the “IC50 (ppm) High Salt Cgr” value stood at 0.6 ppm and the “IC50 (ppm) Low Salt Cgr” value worked out at 0.3 ppm. Further, in assay [2], the “IC50 (ppm) High Salt Fgr” value came out at 100 ppm and the “IC50 (ppm) Low Salt Fgr” value worked out at 15 ppm. Moreover, in assay [3], the “IC50 (ppm) High Salt Fve” value is listed as 200 ppm and the “IC50 (ppm) Low Salt Fve” value was 30 ppm. In addition, in the assay with Diplodia maydis (DMA), the “IC50 (ppm) High Salt Dma” value was 50 ppm and the “IC50 (ppm) Low Salt Dma” value came out at 15 ppm.

Consider “PP-PDF1-2CF-10F3: Pp-PDF1 variant from second shuffling round (RVCTKPSKFFRGLCVSDRNCTNACRKEGLPTGECKSKGFFNSVCVCKKPC; Synthetic sequence obtained from DNA shuffling of a plant sequence.)”, for which, in assay [1], the “IC50 (ppm) High Salt Cgr” value amounted to 0.6 ppm and the “IC50 (ppm) Low Salt Cgr” value was determined as 1.5 ppm. For the same substance, in assay [2], the “IC50 (ppm) High Salt Fgr” value is on record as 100 ppm and the “IC50 (ppm) Low Salt Fgr” value worked out at 15 ppm. Moreover, in assay [3], the “IC50 (ppm) High Salt Fve” value is reported as 200 ppm and the “IC50 (ppm) Low Salt Fve” value is recorded as 30 ppm. Moreover, in the assay with Diplodia maydis (DMA), the “IC50 (ppm) High Salt Dma” value came to 25 ppm and the “IC50 (ppm) Low Salt Dma” value came to 15 ppm.

With “Pp-PDF1 2CA 5H4: Pp-PDF1 variant from second shuffling round (RVCKKPSKFFKGLCLSDRDCTNACRKEGLATGECQSKGFFNSVCVCEKPC; Synthetic sequence obtained from DNA shuffling of a plant sequence.)”, the “IC50 (ppm) High Salt Cgr” value in assay [1] was determined as 1 ppm.

For the substance “Pp-PDF1 (4B11): Pp-PDF1 variant identified by DNA shuffling (RVCTKPSKFFKGMCVSDNNCTHACRKEGLPTGFCQSKGFFNSVCVCKKPC; Synthetic sequence obtained from DNA shuffling of a plant sequence.)”, in assay [1], the “Antifungal activity (IC50 in ppm) against C. graminicola under high salt conditions” value (“Antifungal activity (IC50 in ppm)” below) is recorded as 1 ppm and the “IC50 (ppm) High Salt Cgr” value turned out to be 0.8 ppm. For the same substance, the “IC50 (ppm) High Salt Fgr” value in assay [2] is recorded as greater than 200 ppm. Further, the “IC50 (ppm) High Salt Fve” value in assay [3] is reported as greater than 200 ppm. In addition, the “IC50 (ppm) High Salt Dma” value in the assay with Diplodia maydis (DMA) is reported as 12.5 ppm.

In the case of “Pp-PDF1 (C2B5): Pp-PDF1 variant identified by DNA shuffling (RVCEKPSKFFKGMCVSDRNCTNACRKEGLPTGFCQSKGFFNSVCVCKKPC; Synthetic sequence obtained from DNA shuffling of a plant sequence.)”, the “Antifungal activity (IC50 in ppm)” value in assay [1] is given as 0.8 ppm.

Consider “Pp-PDF1-1C-6D3: Pp-PDF1 variant from first shuffling round (RVCEKPSKFFKGLCVRDRDCAVACKKEGLASGFCQSKGFFNSVCVCKKPC; Synthetic sequence obtained from DNA shuffling of a plant sequence.)”, for which, in assay [1], the “IC50 (ppm) High Salt Cgr” value turned out to be 12 ppm and the “IC50 (ppm) Low Salt Cgr” value is listed as 0.6 ppm. The “IC50 (ppm) Low Salt Fgr” value in assay [2] is 4.5 ppm.

“Pp-PDF1-1C-7C4: Pp-PDF1 variant from first shuffling round (RVCTKPSKFFKGMCVSDNDCTHACRKEGLATGFCQSKGFFNSVCVCTKPC; Synthetic sequence obtained from DNA shuffling of a plant sequence.)”: in assay [1], the “Antifungal activity (IC50 in ppm)” value amounted to 5 ppm, the “IC50 (ppm) High Salt Cgr” value amounted to 3 ppm and the “IC50 (ppm) Low Salt Cgr” value was determined as 0.14 ppm. Also, in assay [2], the “IC50 (ppm) High Salt Fgr” value is reported as 20 ppm and the “IC50 (ppm) Low Salt Fgr” value amounted to 4.7 ppm. For the same substance, the “IC50 (ppm) High Salt Fve” value in assay [3] was greater than 200 ppm. In the assay with Diplodia maydis (DMA), the “IC50 (ppm) High Salt Dma” value is 25 ppm.

For “Pp-PDF1-1F-1C5: Pp-PDF1 variant from first shuffling round (KVCTKPSKFFKGMCVRDRDCTNACRKEGLASGFCQKKGFFNFVCVCRKPC; Synthetic sequence obtained from DNA shuffling of a plant sequence.)”, the “IC50 (ppm) High Salt Cgr” value in assay [1] is 10 ppm. For the same substance, in assay [2], the “IC50 (ppm) High Salt Fgr” value is listed as 1.5 ppm. Besides, the “IC50 (ppm) High Salt Fve” value in assay [3] was greater than 200 ppm. Further, in the assay on Diplodia maydis (DMA), the “IC50 (ppm) High Salt Dma” value is reported as 50 ppm.

With “Pp-PDF1-2CA-1A6: Pp-PDF1 variant from second shuffling round (RVCKKPSKFFKGLCLSDRDCTNACRKEGLATGECQSKGFFNSVCVCRKPC; Synthetic sequence obtained from DNA shuffling of a plant sequence.)”, the “IC50 (ppm) High Salt Cgr” value in assay [1] turned out to be 1 ppm.

“Pp-PDF1-2CA-1H4: Pp-PDF1 variant from second shuffling round (RVCRKPSKFFKGLCLSDRDCTNACRKEGLATGECQSKGFFNSVCVCEKPC; Synthetic sequence obtained from DNA shuffling of a plant sequence.)”: in assay [1], the “IC50 (ppm) High Salt Cgr” value is listed as 1 ppm.

For the substance “Pp-PDF1-2CE-4A7: Pp-PDF1 variant from second shuffling round (RVCTKPSKFFKGLCVSDNNCTHACRTEGLPIGFCQSKGFFNSVCVCKKPC; Synthetic sequence obtained from DNA shuffling of a plant sequence.)”, in assay [1], the “IC50 (ppm) High Salt Cgr” value stood at 0.8 ppm. Moreover, in assay [2], the “IC50 (ppm) High Salt Fgr” value is 5.6 ppm. Also, the “IC50 (ppm) High Salt Fve” value in assay [3] was found to be 200 ppm. Besides, the “IC50 (ppm) High Salt Dma” value in the assay on Diplodia maydis (DMA) is given as 25 ppm.

As to “Pp-PDF1-3CA-1 E6: Pp-PDF1 variant from third shuffling round (RVCTKPSKFYRGLCVSDRDCTNACRKEGLPTGFCQSKGFFNSVCVCKKPC; Synthetic sequence obtained from DNA shuffling of a plant sequence.)”, the “IC50 (ppm) High Salt Cgr” value in assay [1] stood at 0.6 ppm. For the same substance, the “IC50 (ppm) High Salt Fgr” value in assay [2] is on record as “^~100 ppm”.

With “Pp-PDF1-3CA-1A2: Pp-PDF1 variant from third shuffling round (RVCTKPSKFYRGLCVSDRDCTHACRKEGLPTGFCQSKGFFNSVCVCKKPC; Synthetic sequence obtained from DNA shuffling of a plant sequence.)”, in assay [1], the “IC50 (ppm) High Salt Cgr” value came to 0.6 ppm and the “IC50 (ppm) Low Salt Cgr” value was 3 ppm. Further, in assay [2], the “IC50 (ppm) High Salt Fgr” value is given as “^~100 ppm” and the “IC50 (ppm) Low Salt Fgr” value was determined as 15 ppm. In addition, in assay [3], the “IC50 (ppm) High Salt Fve” value is given as 200 ppm and the “IC50 (ppm) Low Salt Fve” value was 30 ppm. Besides, in the assay on Diplodia maydis (DMA), the “IC50 (ppm) High Salt Dma” value amounted to 50 ppm and the “IC50 (ppm) Low Salt Dma” value was 15 ppm.

On to “Pp-PDF1-3CA-1A7: Pp-PDF1 variant from third shuffling round (RVCTKPSKFFRGLCVSDRDCTNACRKEGLPIGFCQSKGFFNSVCVCKKPC; Synthetic sequence obtained from DNA shuffling of a plant sequence.)”, for which, in assay [1], the “IC50 (ppm) High Salt Cgr” value turned out to be 0.6 ppm and the “IC50 (ppm) Low Salt Cgr” value was 0.8 ppm. In assay [2], the “IC50 (ppm) High Salt Fgr” value is “^~100 ppm” and the “IC50 (ppm) Low Salt Fgr” value came out at 15 ppm. Besides, in assay [3], the “IC50 (ppm) High Salt Fve” value stood at 200 ppm and the “IC50 (ppm) Low Salt Fve” value stood at 30 ppm. Also, in the assay on Diplodia maydis (DMA), the “IC50 (ppm) High Salt Dma” value is 25 ppm and the “IC50 (ppm) Low Salt Dma” value is 10 ppm.

With “Pp-PDF1-3CA-1B2: Pp-PDF1 variant from third shuffling round (RVCTKPSKFYRGLCVSDRDCTHACRKEGLPIGECKSKGFFNSVCVCKKPC; Synthetic sequence obtained from DNA shuffling of a plant sequence.)”, in assay [1], the “IC50 (ppm) High Salt Cgr” value turned out to be 0.8 ppm and the “IC50 (ppm) Low Salt Cgr” value turned out to be 2 ppm. Moreover, in assay [2], the “IC50 (ppm) High Salt Fgr” value was “^~100 ppm” and the “IC50 (ppm) Low Salt Fgr” value is 15 ppm. In addition, in assay [3], the “IC50 (ppm) High Salt Fve” value is 200 ppm and the “IC50 (ppm) Low Salt Fve” value was 30 ppm. Moreover, in the assay with Diplodia maydis (DMA), the “IC50 (ppm) High Salt Dma” value was found to be 50 ppm and the “IC50 (ppm) Low Salt Dma” value is 15 ppm.

For the substance “Pp-PDF1-3CA-2D3: Pp-PDF1 variant from third shuffling round (RVCTKPSKFFRGLCVSDNDCTNACRKEGLPTGFCQSKGFFNSVCVCKKPC; Synthetic sequence obtained from DNA shuffling of a plant sequence.)”, in assay [1], the “IC50 (ppm) High Salt Cgr” value stood at 0.8 ppm and the “IC50 (ppm) Low Salt Cgr” value worked out at 0.3 ppm. In assay [2], the “IC50 (ppm) High Salt Fgr” value is “^~100 ppm” and the “IC50 (ppm) Low Salt Fgr” value is on record as 15 ppm. Also, in assay [3], the “IC50 (ppm) High Salt Fve” value is on record as 200 ppm and the “IC50 (ppm) Low Salt Fve” value came to 30 ppm. In addition, in the assay on Diplodia maydis (DMA), the “IC50 (ppm) High Salt Dma” value turned out to be 25 ppm and the “IC50 (ppm) Low Salt Dma” value is on record as 6 ppm.

The values above are taken from patent US8865967B2 (priority 2010, dated 2014).
